These results are taken from ChEMBL document CHEMBL4828726, “Modification of 5-methylphenanthridium from benzothiazoles to indoles as potent FtsZ inhibitors: Broadening the antibacterial spectrum toward vancomycin-resistant enterococci” (Eur J Med Chem, 2021).

The structures appear in SMILES notation. The source made the active and inactive calls. Bounds are passed on as bounds.

For data set [1], the system named is Staphylococcus aureus. Briefly: Antibacterial activity against Staphylococcus aureus ATCC 25923 assessed as fold change in MIC value measured after 14 passages by Multi passage resistance assay. It counts as functional, organism-based.
Data set [2] has as its system Staphylococcus aureus. Description: Antibacterial activity against Staphylococcus aureus ATCC 25923 assessed as fold increase in MIC value measured after 10 passages by Multi passage resistance assay. The data set is classed as functional, organism-based.
Data set [3] is described as follows: Hemolytic activity against mouse RBC at 1 to 16 ug/ml measured after 1 hr by hemolysis assay relative to Triton X-100. The data set is classed as ADME, cell-based, Erythrocyte. As to conditions: mouse red blood cells (erythrocytes), at 1 to 16 µg/mL, dose 1-16 µg/ml, read-out: Activity.
The subject of data set [4] is Bacillus subtilis. Briefly: Bactericidal activity against penicillin-susceptible Bacillus subtilis ATCC 9372 assessed as inhibition of bacterial growth measured after 20 hrs by two-fold microdilution assay. It counts as functional. In general terms: Dilution methods test growth across graded concentrations, often in twofold steps.
Data set [5] deals with Bacillus pumilus. Briefly: Bactericidal activity against penicillin-susceptible Bacillus pumilus CMCC63202 assessed as inhibition of bacterial growth measured after 20 hrs by two-fold microdilution assay. It counts as functional.
Data set [6] deals with Bacillus subtilis. Description: Antibacterial activity against penicillin-susceptible Bacillus subtilis ATCC 9372 assessed as inhibition of bacterial growth measured after 20 hrs by two-fold microdilution assay. The data set is classed as functional.
For data set [7], the system named is Staphylococcus aureus. Description: Bactericidal activity against penicillin-resistant Staphylococcus aureus ATCC 31007 assessed as inhibition of bacterial growth measured after 20 hrs by two-fold microdilution assay. It counts as functional.
The test system of data set [8] is Staphylococcus aureus. Description: Antibacterial activity against erythromycin-susceptible Staphylococcus aureus ATCC 25923 assessed as inhibition of bacterial growth measured after 20 hrs by two-fold microdilution assay. The data set is classed as functional.
Data set [9] concerns Enterococcus faecium. Description: Antibacterial activity against Vancomycin-susceptible Enterococcus faecium ATCC 19434 assessed as inhibition of bacterial growth measured after 20 hrs by two-fold microdilution assay. It counts as functional.
The test system of data set [10] is Staphylococcus aureus. Description: Ratio of MBC to MIC against methicilline-resistant Staphylococcus aureus ATCC43300. It counts as functional.
In data set [11] the test system is Pseudomonas aeruginosa. Description: Antibacterial activity against penicillin-susceptible Pseudomonas aeruginosa ATCC 27853 assessed as inhibition of bacterial growth measured after 20 hrs by two-fold microdilution assay. The data set is classed as functional.
Data set [12] has as its system Streptococcus pyogenes. Briefly: Antibacterial activity against erythromycin-susceptible Streptococcus pyogenes assessed as inhibition of bacterial growth measured after 20 hrs by two-fold microdilution assay. It counts as functional.
Data set [13] has as its system Staphylococcus aureus. Description: Antibacterial activity against Staphylococcus aureus ATCC 25923 assessed as decrease of bacterial growth measured up to 24 hrs by Time kill assay. Conditions: dose 4-32 µg/ml, time hrs <=24. It counts as functional, organism-based.
The subject of data set [14] is Enterococcus faecium. Briefly: Antibacterial activity against Vancomycin-resistant Enterococcus faecium ATCC 51559 assessed as inhibition of bacterial growth measured after 20 hrs by two-fold microdilution assay. It counts as functional.
In another data set the test system is Escherichia coli. Description: Antibacterial activity against penicillin-susceptible Escherichia coli ATCC 25922 assessed as inhibition of bacterial growth measured after 20 hrs by two-fold microdilution assay. The data set is classed as functional.
Data set [15] concerns Bacillus pumilus. Description: Antibacterial activity against penicillin-susceptible Bacillus pumilus CMCC63202 assessed as inhibition of bacterial growth measured after 20 hrs by two-fold microdilution assay. The data set is classed as functional.
Data set [16] relates to Staphylococcus aureus. Briefly: Antibacterial activity against penicillin-resistant Staphylococcus aureus ATCC 31007 assessed as inhibition of bacterial growth measured after 20 hrs by two-fold microdilution assay. It counts as functional.
Data set [17] deals with Pseudomonas aeruginosa. Briefly: Anti-biofilm activity against Pseudomonas aeruginosa ATCC 27853 assessed as inhibition of biofilm formation at 4 to 64 ug/ml measured after 20 hrs by crystal violet staining based biofilm formation inhibition assay. The data set is classed as functional, organism-based. Conditions: dose 4-64 µg/ml.
In data set [18] the test system is Enterococcus faecalis. Briefly: Antibacterial activity against Vancomycin-susceptible Enterococcus faecalis ATCC 29212 assessed as inhibition of bacterial growth measured after 20 hrs by two-fold microdilution assay. It counts as functional.
Data set [19] has as its system Staphylococcus aureus. Description: Antibacterial activity against Staphylococcus aureus ATCC 25923 assessed as reduction of colony forming units at 32 ug/ml measured up to 24 hrs by Time kill assay. It counts as functional. Also on record: scale not given: the % may be the effect or the level left. Conditions: dose 32 µg/ml; time hrs <=24.
Data set [20] has as its system Staphylococcus aureus. Briefly: Bactericidal activity against erythromycin-susceptible Staphylococcus aureus ATCC 25923 assessed as inhibition of bacterial growth measured after 20 hrs by two-fold microdilution assay. It counts as functional.
The subject of data set [21] is Enterococcus faecalis. Briefly: Antibacterial activity against Vancomycin-resistant Enterococcus faecalis ATCC 51299 assessed as inhibition of bacterial growth measured after 20 hrs by two-fold microdilution assay. The data set is classed as functional.
The test system of data set [22] is Staphylococcus epidermidis. Description: Antibacterial activity against penicillin-resistant Staphylococcus epidermidis assessed as inhibition of bacterial growth measured after 20 hrs by two-fold microdilution assay. The data set is classed as functional.
Data set [23] has as its system Staphylococcus aureus. Description: Ratio of MBC to MIC against erythromycin-susceptible Staphylococcus aureus ATCC 25923. The data set is classed as functional.
In data set [24] the test system is Staphylococcus aureus. Briefly: Antibacterial activity against Staphylococcus aureus ATCC 25923 assessed as fold increase in MIC value measured after 1 passage by Multi passage resistance assay. The data set is classed as functional.
Data set [25] has as its system Staphylococcus aureus. Briefly: Antibacterial activity against clinical isolate Staphylococcus aureus C1 assessed as inhibition of bacterial growth measured after 20 hrs by two-fold microdilution assay. The data set is classed as functional.
Data set [26] has as its system Bacillus subtilis. Briefly: Ratio of MBC to MIC against penicillin-susceptible Bacillus subtilis ATCC 9372. It counts as functional.
The test system of data set [27] is Streptococcus pyogenes. Description: Antibacterial activity against erythromycin-resistant Streptococcus pyogenes assessed as inhibition of bacterial growth measured after 20 hrs by two-fold microdilution assay. It counts as functional.
Data set [28] relates to Staphylococcus aureus. Description: Antibacterial activity against methicillin-resistant Staphylococcus aureus ATCC43300 assessed as inhibition of bacterial growth measured after 20 hrs by two-fold microdilution assay. It counts as functional.
Data set [29] has as its system Staphylococcus aureus. Briefly: Bactericidal activity against methicillin-resistant Staphylococcus aureus ATCC43300 assessed as inhibition of bacterial growth measured after 20 hrs by two-fold microdilution assay. It counts as functional.
Data set [30] deals with Staphylococcus aureus. Description: Antibacterial activity against Staphylococcus aureus ATCC 25923 assessed as fold increase in MIC value measured after 15 passages by Multi passage resistance assay. The data set is classed as functional.

What is called MBC is the smallest concentration meeting the test's criterion for killing. Broadly, the MIC is the lowest concentration found to suppress growth. Regarding `CCCCn1ccc2ccc(-c3ccc4c(c3)c3c(C)cccc3c[n+]4C)cc21.[Cl-]`, the outcome in the data set with Staphylococcus aureus [1] and in the data set with Staphylococcus aureus [2] was Active. Further, in [3], the hemolysis at 1 h is less than 8%. Moreover, the MBC in the data set on Bacillus subtilis [4] was 8 µg/mL; in the data set with Bacillus pumilus [5], more than 64 µg/mL; in the data set with Staphylococcus aureus [7], more than 64 µg/mL; in the data set on Staphylococcus aureus [20] it was 16 µg/mL; with Staphylococcus aureus [29], 64 µg/mL. The MIC with Bacillus subtilis [6] is 4 µg/mL; with Staphylococcus aureus [8], 1 µg/mL; in the data set on Enterococcus faecium [9], 8 µg/mL; in the data set with Pseudomonas aeruginosa [11], more than 64 µg/mL; in the data set on Streptococcus pyogenes [12], 16 µg/mL; with Enterococcus faecium [14], 8 µg/mL. For the same compound, the MIC in the data set on Escherichia coli is more than 64 µg/mL; in the data set with Bacillus pumilus [15] it was 8 µg/mL; with Staphylococcus aureus [16] it was 8 µg/mL; with Enterococcus faecalis [18], 8 µg/mL; in the data set on Enterococcus faecalis [21], 16 µg/mL; in data set [22] it was 16 µg/mL. Further, the MIC came out at 4 µg/mL in the data set on Staphylococcus aureus [25], 16 µg/mL in the data set with Streptococcus pyogenes [27] and 8 µg/mL in the data set on Staphylococcus aureus [28]. Further, the values for the Ratio with Staphylococcus aureus [10], in the data set on Staphylococcus aureus [23] and with Bacillus subtilis [26] were 8, 16 and 2, respectively. The Activity result in the data set with Staphylococcus aureus [13] is “Dose-Dependent Effect”; in the data set with Staphylococcus aureus [19], more than 99.9%. The result in the data set on Pseudomonas aeruginosa [17] was inactive. Further, the “fold change (FC)” value with Staphylococcus aureus [24] was found to be 4.
Turning to `CO[C@H]1/C=C/O[C@@]2(C)Oc3c(C)c(O)c4c(O)c(c(/C=N/N5CCN(C)CC5)c(O)c4c3C2=O)NC(=O)/C(C)=C\C=C\[C@H](C)[C@H](O)[C@@H](C)[C@@H](O)[C@@H](C)[C@H](OC(C)=O)[C@@H]1C` [RIFAMPIN], the “fold change (FC)” value in the data set on Staphylococcus aureus [24] is reported as 8; with Staphylococcus aureus [30], more than 16000.
